Counter-ions that a name gives are not always drawn. Like-named read-outs stand apart in the source and are kept apart here.

The text below walks through data of patent US10004701B2, “Methods and compositions for treating infection” (UNIVERSITY OF ROCHESTER, priority 2012, dated 2018).

What all share (test): AK assay 384-well format, Prestwick library screening
For one experiment, the system named is K. pneumoniae. In kind it is cell-based, Klebsiella pneumoniae. Particulars: 50 μM final drug concentration; for fold induction at 50 µM: Klebsiella pneumoniae, 3 h.
Experiment [1] relates to S. aureus strain USA300-0114. In kind it is cell-based, Staphylococcus aureus. Particulars: 50 μM final drug concentration; for fold induction at 50 µM: Staphylococcus aureus, USA300, 3 h.
The subject of the next experiment is E. coli. The class given is cell-based, Escherichia coli. Particulars: 50 μM final drug concentration; for fold induction at 50 µM: Escherichia coli, 3 h.
For another experiment, the system named is E. cloacae. In kind it is cell-based, Enterobacter cloacae. The conditions noted are these: 50 μM final drug concentration; for fold induction at 50 µM: Enterobacter cloacae, 3 h.
Experiment [2] concerns A. baumannii strain 98-37-09. In kind it is cell-based, Acinetobacter baumannii. The conditions noted are these: 50 μM final drug concentration; for fold induction at 50 µM: Acinetobacter baumannii, 983709, 3 h.
Another experiment concerns E. faecium. The class given is cell-based, Enterococcus faecium. Particulars: 50 μM final drug concentration; for fold induction at 50 µM: Enterococcus faecium, 3 h.
Another experiment has as its system P. aeruginosa. In kind it is cell-based, Pseudomonas aeruginosa. Particulars: 50 μM final drug concentration; for fold induction at 50 µM: Pseudomonas aeruginosa, 3 h.
Where [3] appears, read: planktonic, cutoff for positive 3-fold increase, read-out: AK-based Prestwick Library Screening Results, K. pneumoniae (fold increase in extracellular AK activity).
The mark [4] stands for this setting: planktonic, cutoff for positive 3-fold increase, read-out: AK-based Prestwick Library Screening Results, S. aureus (fold increase in extracellular AK activity).
[5] abbreviates: planktonic, cutoff for positive 3-fold increase, read-out: AK-based Prestwick Library Screening Results, E. coli (fold increase in extracellular AK activity).
Setting [6] is: planktonic, cutoff for positive 3-fold increase, read-out: AK-based Prestwick Library Screening Results, E. cloacae (fold increase in extracellular AK activity).
Setting [7] is: planktonic, cutoff for positive 3-fold increase, read-out: AK-based Prestwick Library Screening Results, A. baumannii (fold increase in extracellular AK activity).
[8] abbreviates: planktonic, cutoff for positive 3-fold increase, read-out: AK-based Prestwick Library Screening Results, E. faecium (fold increase in extracellular AK activity).
Setting [9] is: planktonic, cutoff for positive 3-fold increase, read-out: AK-based Prestwick Library Screening Results, P. aeruginosa (fold increase in extracellular AK activity).
[10] abbreviates: 384-well format, cutoff for positive-scoring molecules 3-fold increase.

Regarding `CCN1C[C@]2(COC)CC[C@H](OC)[C@]34C5C[C@@H]6[C@@H](OC)C[C@@]7(OCO[C@@]7(C13)[C@@H](O)C24)C5[C@H]6OC` (stereo partly drawn) [Delcorine], the fold induction at 50 µM is 0.7 in the experiment on K. pneumoniae (planktonic, […], read-out: AK-based Prestwick Library Screening Results, K. pneumoniae (fold increase in extracellular AK activity)); 0.7 in experiment [1] (planktonic, […], read-out: AK-based Prestwick Library Screening Results, S. aureus (fold increase in extracellular AK activity)); 0.8 with E. coli (planktonic, […], read-out: AK-based Prestwick Library Screening Results, E. coli (fold increase in extracellular AK activity)); 1.2 with E. cloacae (planktonic, […], read-out: AK-based Prestwick Library Screening Results, E. cloacae (fold increase in extracellular AK activity)); 0.9 in experiment [2] (planktonic, […], read-out: AK-based Prestwick Library Screening Results, A. baumannii (fold increase in extracellular AK activity)); 0.9 in the experiment on E. faecium (planktonic, […], read-out: AK-based Prestwick Library Screening Results, E. faecium (fold increase in extracellular AK activity)). In the experiment on P. aeruginosa (planktonic, […], read-out: AK-based Prestwick Library Screening Results, P. aeruginosa (fold increase in extracellular AK activity)), the fold induction at 50 µM stood at 0.9.
In the case of `COc1c(C)c2c(c(O)c1C/C=C(\C)CCC(=O)O)C(=O)OC2` [Mycophenolic acid], the fold induction at 50 µM in the experiment with K. pneumoniae (setting [3]) stood at 1.5; in experiment [1] (setting [4]) it was 1.1; in the experiment with E. coli (setting [5]), 1.2; in the experiment on E. cloacae (setting [6]), 1.3; in experiment [2] (setting [7]), 1.2; with E. faecium (setting [8]), 1.1. For the same compound, the fold induction at 50 µM with P. aeruginosa (setting [9]) was determined as 1.2.
Turning to Cotinine (−), the “AK-based Prestwick Library Screening Results, K. pneumoniae (increase in extracellular AK activity)” value in the experiment with K. pneumoniae (setting [10]) is recorded as 0.4. In addition, the “AK-based Prestwick Library Screening Results, S. aureus (increase in extracellular AK activity)” value in experiment [1] (setting [10]) was found to be 0.4. For the same compound, in the experiment on E. coli (384-well format, […]), the “AK-based Prestwick Library Screening Results, E. coli (increase in extracellular AK activity)” value turned out to be 0.5. Also, the “AK-based Prestwick Library Screening Results, E. cloacae (increase in extracellular AK activity)” value with E. cloacae (setting [10]) is reported as 0.3. The “AK-based Prestwick Library Screening Results, A. baumannii (increase in extracellular AK activity)” value in experiment [2] (setting [10]) was 0.3. For the same compound, the “AK-based Prestwick Library Screening Results, E. faecium (increase in extracellular AK activity)” value in the experiment with E. faecium (setting [10]) turned out to be 0.8. The “AK-based Prestwick Library Screening Results, P. aeruginosa (increase in extracellular AK activity)” value in the experiment with P. aeruginosa (setting [10]) is reported as 0.3.
Take `COc1ccc([C@@H]2CC(=O)c3c(O)cc(O)cc3O2)cc1O` [Hesperetin]: the fold induction at 50 µM in the experiment with K. pneumoniae (384-well format, cutoff for positive-scoring molecules 3-fold increase, read-out: AK-based Prestwick Library Screening Results, K. pneumoniae (increase in extracellular AK activity)) was determined as 0.9; in experiment [1] (384-well format, cutoff for positive-scoring molecules 3-fold increase, read-out: AK-based Prestwick Library Screening Results, S. aureus (increase in extracellular AK activity)), 0.5; in the experiment with E. coli (384-well format, cutoff for positive-scoring molecules 3-fold increase, read-out: AK-based Prestwick Library Screening Results, E. coli (increase in extracellular AK activity)) it was 1.1; in the experiment on E. cloacae (384-well format, cutoff for positive-scoring molecules 3-fold increase, read-out: AK-based Prestwick Library Screening Results, E. cloacae (increase in extracellular AK activity)), 1.3; in experiment [2] (384-well format, cutoff for positive-scoring molecules 3-fold increase, read-out: AK-based Prestwick Library Screening Results, A. baumannii (increase in extracellular AK activity)) it was 1.1; in the experiment with E. faecium (384-well format, cutoff for positive-scoring molecules 3-fold increase, read-out: AK-based Prestwick Library Screening Results, E. faecium (increase in extracellular AK activity)) it was 0.9. Moreover, in the experiment with P. aeruginosa (384-well format, cutoff for positive-scoring molecules 3-fold increase, read-out: AK-based Prestwick Library Screening Results, P. aeruginosa (increase in extracellular AK activity)), the fold induction at 50 µM is 0.9.
With `Cc1ccsc1/C=C/C1=NCCCN1C` [Morantel tartrate], the fold induction at 50 µM in the experiment with K. pneumoniae (planktonic K. pneumoniae, 384-well, […], read-out: AK-based Prestwick Library Screening Results: K. pneumoniae (increase in extracellular AK activity)) was found to be 0.9; in experiment [1] (planktonic S. aureus, 384-well, […], read-out: AK-based Prestwick Library Screening Results: S. aureus (increase in extracellular AK activity)) it was 1.2; with E. coli (planktonic E. coli, 384-well, […], read-out: AK-based Prestwick Library Screening Results: E. coli (increase in extracellular AK activity)), 1.4; with E. cloacae (planktonic E. cloacae, 384-well, […], read-out: AK-based Prestwick Library Screening Results: E. cloacae (increase in extracellular AK activity)), 1.3; in experiment [2] (planktonic A. baumannii, 384-well, […], read-out: AK-based Prestwick Library Screening Results: A. baumannii (increase in extracellular AK activity)), 1.1; in the experiment with E. faecium (planktonic E. faecium, 384-well, […], read-out: AK-based Prestwick Library Screening Results: E. faecium (increase in extracellular AK activity)), 0.8. The fold induction at 50 µM in the experiment on P. aeruginosa (planktonic P. aeruginosa, 384-well, […], read-out: AK-based Prestwick Library Screening Results: P. aeruginosa (increase in extracellular AK activity)) stood at 1.2.
Consider `C[C@@H]1NCCc2cc(O)c(O)cc21` [Salsolinol hydrobromide], for which the fold induction at 50 µM with K. pneumoniae (setting [3]) amounted to 1.2; in experiment [1] (setting [4]), 1.1; with E. coli (setting [5]), 1.2; with E. cloacae (setting [6]), 1.5; in experiment [2] (setting [7]), 1.2; with E. faecium (setting [8]), 1. For the same compound, the fold induction at 50 µM in the experiment on P. aeruginosa (setting [9]) was 1.1.
For `CC1(C)S[C@@H]2[C@H](NC(=O)Cc3ccccc3)C(=O)N2[C@H]1C(=O)O.CC1(C)S[C@@H]2[C@H](NC(=O)Cc3ccccc3)C(=O)N2[C@H]1C(=O)O.c1ccc(CNCCNCc2ccccc2)cc1` [Benzathine benzylpenicillin], the “AK-based Prestwick library screening result, K. pneumoniae (fold increase in extracellular AK activity)” value in the experiment with K. pneumoniae (planktonic K. pneumoniae, positive cutoff 3-fold increase) came to 1.0. For the same compound, in experiment [1] (planktonic S. aureus, positive cutoff 3-fold increase), the “AK-based Prestwick library screening result, S. aureus (fold increase in extracellular AK activity)” value was found to be 1.0. The “AK-based Prestwick library screening result, E. coli (fold increase in extracellular AK activity)” value in the experiment on E. coli (planktonic E. coli, positive cutoff 3-fold increase) is 15.6. In addition, the “AK-based Prestwick library screening result, E. cloacae (fold increase in extracellular AK activity)” value with E. cloacae (planktonic E. cloacae, positive cutoff 3-fold increase) worked out at 1.6. In addition, the “AK-based Prestwick library screening result, A. baumannii (fold increase in extracellular AK activity)” value in experiment [2] (planktonic A. baumannii, positive cutoff 3-fold increase) came to 5.9. Further, the “AK-based Prestwick library screening result, E. faecium (fold increase in extracellular AK activity)” value in the experiment with E. faecium (planktonic E. faecium, positive cutoff 3-fold increase) amounted to 1.6. In addition, the “AK-based Prestwick library screening result, P. aeruginosa (fold increase in extracellular AK activity)” value in the experiment with P. aeruginosa (planktonic P. aeruginosa, positive cutoff 3-fold increase) is 1.1.
Turning to `CC(Oc1ccccc1)C(=O)N[C@@H]1C(=O)N2[C@@H]1SC(C)(C)[C@@H]2C(=O)O` (stereo partly drawn) [Phenethicillin potassium salt], the fold induction at 50 µM amounted to 0.5 in the experiment on K. pneumoniae (setting [3]); 0.6 in experiment [1] (setting [4]); 0.5 with E. coli (setting [5]); 0.3 with E. cloacae (setting [6]); 0.8 in experiment [2] (setting [7]); 1 in the experiment with E. faecium (setting [8]). Further, the fold induction at 50 µM in the experiment on P. aeruginosa (setting [9]) is 0.4.
With `C=CC1=C(C(=O)O)N2C(=O)[C@@H](NC(=O)/C(=N\OCC(=O)O)c3csc(N)n3)[C@H]2SC1` [Cefixime], the fold induction at 50 µM is 4.6 with K. pneumoniae (setting [3]); 1.2 in experiment [1] (setting [4]); 18.6 in the experiment on E. coli (setting [5]); 21.9 with E. cloacae (setting [6]); 1.8 in experiment [2] (setting [7]); 1.1 in the experiment with E. faecium (setting [8]). Further, the fold induction at 50 µM in the experiment on P. aeruginosa (setting [9]) is 11.7.
